For the experiment, the system named is B6C3F1 mice, colon carcinoma 38 s.c., T/C. The experiment is described as follows: NCI In Vivo Anticancer Drug Screen. Data for tumor model Colon Carcinoma 38 (subcutaneous) in B6C3F1 mice. The conditions noted are these: endpoint: median tumor weight (est.), higher = larger tumour. As for the experimental part: The antitumor activity of compounds was measured in mice bearing transplantable tumors. Survival or tumor size were measured and the results are expressed as the measurement made in the treated group (T) divided by the measurement made in the vehicle treated control group (C). The tumor model used in this assay is Colon Carcinoma 38 (subcutaneous) in B6C3F1 mice

The mark [1] stands for this setting: dose: 200.0 mg/kg/injection, schedule: Q07DX002 (ip), vehicle: saline with Tween-80.
[2] abbreviates: dose: 400.0 mg/kg/injection, schedule: Q07DX002 (ip), vehicle: saline with Tween-80.
[3] abbreviates: dose: 800.0 mg/kg/injection, schedule: Q07DX002 (ip), vehicle: saline with Tween-80.
The mark [4] stands for this setting: dose: 25.0 mg/kg/injection, schedule: Q07DX002 (ip), vehicle: water.
Setting [5] is: dose: 50.0 mg/kg/injection, schedule: Q07DX002 (ip), vehicle: water.
The mark [6] stands for this setting: dose: 50.0 mg/kg/injection, schedule: Q07DX002 (ip), vehicle: saline with Tween-80.
[7] abbreviates: dose: 100.0 mg/kg/injection, schedule: Q07DX002 (ip), vehicle: saline with Tween-80.
Setting [8] is: dose: 25.0 mg/kg/injection, schedule: Q07DX002 (ip), vehicle: saline.
Where [9] appears, read: dose: 50.0 mg/kg/injection, schedule: Q07DX002 (ip), vehicle: saline.

Values joined by “and” are separate entries in the source; they are usually repeats but may differ in a detail not shown here. Equal entries are not always repeated. Results filed as inconclusive are left out.

For `CC[C@H](CC[C@@H](C)C1CC[C@H]2[C@@H]3CC=C4C[C@@H](OP(=O)(N5CC5)N5CC5)CC[C@]4(C)[C@H]3CC[C@]12C)C(C)C` (some centres undefined), the T/C was 246 % of control (dose: 225.0 mg/kg/injection, schedule: Q07DX002 (ip), vehicle: saline with Tween-80); 205 % of control (dose: 450.0 mg/kg/injection, schedule: Q07DX002 (ip), vehicle: saline with Tween-80); 115 % of control (dose: 900.0 mg/kg/injection, schedule: Q07DX002 (ip), vehicle: saline with Tween-80).

On to `O=c1[nH]cccc1O`, for which the T/C is 91 % of control (dose: 62.5 mg/kg/injection, schedule: Q07DX002 (ip), vehicle: saline with Tween-80); 90 % of control and 97 % of control (dose: 125.0 mg/kg/injection, schedule: Q07DX002 (ip), vehicle: saline with Tween-80); 90 % of control and 95 % of control (dose: 250.0 mg/kg/injection, schedule: Q07DX002 (ip), vehicle: saline with Tween-80); 95 % of control and 70 % of control (dose: 500.0 mg/kg/injection, schedule: Q07DX002 (ip), vehicle: saline with Tween-80); 74 % of control (dose: 1000.0 mg/kg/injection, schedule: Q07DX002 (ip), vehicle: saline with Tween-80).

In the case of `CC(C)CCC(=O)c1ccoc1`, the T/C was 56 % of control (dose: 0.25 mg/kg/injection, schedule: Q03HX006 (ip), vehicle: saline with Tween-80); 56 % of control (dose: 0.5 mg/kg/injection, schedule: Q03HX006 (ip), vehicle: saline with Tween-80); 81 % of control (dose: 1.0 mg/kg/injection, schedule: Q03HX006 (ip), vehicle: saline with Tween-80); 87 % of control (dose: 2.0 mg/kg/injection, schedule: Q03HX006 (ip), vehicle: saline with Tween-80).

Take `Oc1cc2ccccc2c(-c2c(O)c(O)cc3ccccc23)c1O`: the T/C runs as follows: under setting [1], 70 % of control; under setting [2], 62 % of control; under setting [3], 104 % of control.

On to `ClCCCN1CCN(CCCl)CC1`, for which the T/C reads like this: (dose: 5.0 mg/kg/injection, schedule: Q07DX002 (ip), vehicle: saline) 101 % of control; (dose: 10.0 mg/kg/injection, schedule: Q07DX002 (ip), vehicle: saline) 83 % of control; (dose: 20.0 mg/kg/injection, schedule: Q07DX002 (ip), vehicle: saline) 44 % of control.

Take `NC(=O)CCC(N)C(=O)O` (centres undefined): the T/C runs as follows: (dose: 75.0 mg/kg/injection, schedule: Q07DX002 (ip), vehicle: suspension in saline) 113 % of control; (dose: 150.0 mg/kg/injection, schedule: Q07DX002 (ip), vehicle: suspension in saline) 43 % of control; (dose: 300.0 mg/kg/injection, schedule: Q07DX002 (ip), vehicle: suspension in saline) 84 % of control; (dose: 600.0 mg/kg/injection, schedule: Q07DX002 (ip), vehicle: suspension in saline) 101 % of control; (dose: 1200.0 mg/kg/injection, schedule: Q07DX002 (ip), vehicle: suspension in saline) 91 % of control.

With `N=C(N)CCCCCCCCC(=N)N`, the T/C runs as follows: (dose: 6.25 mg/kg/injection, schedule: Q07DX002 (ip), vehicle: Klucel (hydroxypropylcellulose) (HPC)) 169 % of control; (dose: 12.5 mg/kg/injection, schedule: Q07DX002 (ip), vehicle: Klucel (hydroxypropylcellulose) (HPC)) 109 % of control; (dose: 25.0 mg/kg/injection, schedule: Q07DX002 (ip), vehicle: Klucel (hydroxypropylcellulose) (HPC)) 109 % of control.

Take `CSc1ncnc2c1ncn2C1OC(CO)C(O)C1O` (centres undefined): the T/C by setting is: (dose: 25.0 mg/kg/injection, schedule: Q07DX002 (ip), vehicle: saline + alcohol) 98 % of control; (dose: 50.0 mg/kg/injection, schedule: Q07DX002 (ip), vehicle: saline + alcohol) 51 % of control; (dose: 100.0 mg/kg/injection, schedule: Q07DX002 (ip), vehicle: saline + alcohol) 49 % of control; (dose: 200.0 mg/kg/injection, schedule: Q07DX002 (ip), vehicle: saline + alcohol) 32 % of control.

With `CNC(=O)c1cccc2c(Nc3ccc(NS(C)(=O)=O)cc3OC)c3cccc(C)c3nc12`, the T/C is, setting by setting: (dose: 6.25 mg/kg/injection, schedule: Q07DX002 (ip), vehicle: water) 60 % of control; (dose: 12.5 mg/kg/injection, schedule: Q07DX002 (ip), vehicle: water) 48 % of control; under setting [4], 17 % of control; under setting [5], 4 % of control.

Regarding `O=C1[C@H]2CCC[C@H]2[C@H]2CCC[C@@H]12`, the T/C runs as follows: (dose: 25.0 mg/kg/injection, schedule: Q07DX002 (ip), vehicle: saline with Tween-80) 106 % of control and 109 % of control; under setting [6], 95 % of control and 107 % of control; under setting [7], 41 % of control; under setting [1], 100 % of control and 116 % of control; under setting [2], 104 % of control.

Regarding `C[C@@H]1CC[C@]2(C)CC[C@]3(C)C(=CC[C@@H]4[C@@]5(C)CC[C@@H](OC(=O)c6ccc(O)cc6)C(C)(C)[C@@H]5C[C@H](O)[C@]43C)[C@@H]2[C@H]1C(=O)O`, the T/C by setting is: (dose: 0.12 mg/kg/injection, schedule: Q07DX002 (ip), vehicle: saline with Tween-80) 164 % of control; (dose: 0.5 mg/kg/injection, schedule: Q07DX002 (ip), vehicle: saline with Tween-80) 49 % of control; (dose: 1.0 mg/kg/injection, schedule: Q07DX002 (ip), vehicle: saline with Tween-80) 50 % of control; (dose: 2.0 mg/kg/injection, schedule: Q07DX002 (ip), vehicle: saline with Tween-80) 50 % of control.

`Cc1c(N)nc([C@H](CC(N)=O)NC[C@H](N)C(N)=O)nc1C(=O)N[C@H](C(=O)N[C@H](C)[C@@H](O)[C@H](C)C(=O)N[C@H](C(=O)NCCc1nc(-c2nc(C(=O)NCCC[S+](C)C)cs2)cs1)[C@@H](C)O)C(OC1OC(CO)C(O)C(O)C1OC1OC(CO)C(O)C(OC(N)=O)C1O)c1cnc[nH]1` (some centres undefined): the T/C by setting is: (dose: 16.0 mg/kg/injection, schedule: Q07DX002 (ip), vehicle: saline) 26 % of control; (dose: 32.0 mg/kg/injection, schedule: Q07DX002 (ip), vehicle: saline) 14 % of control; (dose: 64.0 mg/kg/injection, schedule: Q07DX002 (ip), vehicle: saline) 35 % of control; (dose: 128.0 mg/kg/injection, schedule: Q07DX002 (ip), vehicle: saline) 9 % of control.

For the compound `NC(=O)c1ccc[n+](Cc2c(Cl)cccc2Cl)c1`, the T/C is 86 % of control under setting [8] and 94 % of control under setting [9].

With `O=C1SC(c2ccccc2)=S=C1c1ccccc1`, the T/C under setting [6] was 152 % of control; the T/C under setting [7] is 114 % of control; the T/C under setting [1] is 104 % of control; the T/C under setting [2] was 120 % of control; the T/C under setting [3] was 104 % of control.

As for `COC1C(CO)OC(n2cnc3c(=S)nc(N)[nH]c32)C1O` (centres undefined), the T/C is 110 % of control (dose: 100.0 mg/kg/injection, schedule: Q07DX002 (ip), vehicle: Klucel (hydroxypropylcellulose) (HPC)); 46 % of control (dose: 200.0 mg/kg/injection, schedule: Q07DX002 (ip), vehicle: Klucel (hydroxypropylcellulose) (HPC)); 51 % of control (dose: 400.0 mg/kg/injection, schedule: Q07DX002 (ip), vehicle: Klucel (hydroxypropylcellulose) (HPC)); 13 % of control (dose: 800.0 mg/kg/injection, schedule: Q07DX002 (ip), vehicle: Klucel (hydroxypropylcellulose) (HPC)).

For `COc1ccc(OC)c(Cc2cnc3nc(N)nc(N)c3c2C)c1`, the T/C under setting [4] was 72 % of control and the T/C under setting [5] is 104 % of control.

As for `CN(CCN(C)C(=O)CCOS(C)(=O)=O)C(=O)CCOS(C)(=O)=O`, the T/C by setting is: (dose: 12.5 mg/kg/injection, schedule: Q07DX002 (ip), vehicle: saline) 121 % of control; under setting [8], 92 % of control; under setting [9], 51 % of control; (dose: 100.0 mg/kg/injection, schedule: Q07DX002 (ip), vehicle: saline) 51 % of control; (dose: 200.0 mg/kg/injection, schedule: Q07DX002 (ip), vehicle: saline) 12 % of control.

With `COc1ccc2c(ccc3oc([N+](=O)[O-])cc32)c1`, the T/C by setting is: under setting [6], 101 % of control; under setting [7], 116 % of control; under setting [1], 90 % of control; under setting [2], 92 % of control.

Values taken from PubChem BioAssay AID214 (DTP/NCI, 2004).
